Laboratory results from patent US10597388B2, “Pyridazinone herbicides” (FMC CORPORATION, priority 2014, dated 2020).

Assays:
Type in all cases: in vivo
[1] = test system: blackgrass (Alopecurus myosuroides); assay: Test C greenhouse herbicide test, pre- and postemergence
From the text: (§1) Seeds of plant species selected from blackgrass (Alopecurus myosuroides), ryegrass, Italian (Italian ryegrass, Lolium multiflorum), wheat (winter wheat, Triticum aestivum), galium (catchweed bedstraw, Galium aparine), corn (Zea mays), large crabgrass, large (large crabgrass, Digitaria sanguinalis), foxtail, giant (giant foxtail, Setaria faberii), johnsongrass (Sorghum halepense), lambsquarters (Chenopodium album), morningglory (Ipomoea coccinea), nutsedge, yellow (yellow nutsedge, Cyperus esculentus), pigweed (Amaranthus retroflexus), ragweed (common ragweed, Ambrosia elatior), soybean (Glycine max), barnyardgrass (Echinochloa crus-galli), oilseed rape (Brassica napus), waterhemp (common waterhemp, Amaranthus rudis), and velvetleaf (Abutilon theophrasti) were planted into a blend of loam soil and sand and treated preemergence with test chemicals formulated in a non-phytotoxic solvent mixture which included a surfactant.
(§2) At the same time, plants selected from these crop and weed species and also chickweed (common chickweed, Stellaria media), kochia (Kochia scoparia), and oat, wild (wild oat, Avena fatua), were planted in pots containing Redi-Earth® planting medium (Scotts Company, 14111 Scottslawn Road, Marysville, Ohio 43041) comprising spaghnum peat moss, vermiculite, wetting agent and starter nutrients and treated with postemergence applications of test chemicals formulated in the same manner. Plants ranged in height from 2 to 18 cm (1- to 4-leaf stage) for postemergence treatments. Treated plants and controls were maintained in a greenhouse for 13 to 15 d, after which time all species were compared to controls and visually evaluated. Plant response ratings, summarized in Table C, are based on a scale of 0 to 100 where 0 is no effect and 100 is complete control. A dash (-) response means no test result.

corn (Zea mays) = assay: as above
From the text: as §1, §2

[2] = test system: crabgrass, large (large crabgrass, Digitaria sanguinalis); assay: as above
From the text: as §1, §2

[3] = test system: foxtail, giant (giant foxtail, Setaria faberii); assay: as above
From the text: as §1, §2

[4] = test system: johnsongrass (Sorghum halepense); assay: as above
From the text: as §1, §2

[5] = test system: lambsquarters (Chenopodium album); assay: as above
From the text: as §1, §2

[6] = test system: morningglory (Ipomoea coccinea); assay: as above
From the text: as §1, §2

[7] = test system: oilseed rape (Brassica napus); assay: as above
From the text: as §1, §2

[8] = test system: pigweed (Amaranthus retroflexus); assay: as above
From the text: as §1, §2

[9] = test system: ragweed (common ragweed, Ambrosia elatior); assay: as above
From the text: as §1, §2

[10] = test system: ryegrass, Italian (Italian ryegrass, Lolium multiflorum); assay: as above
From the text: as §1, §2

soybean (Glycine max) = assay: as above
From the text: as §1, §2

[11] = test system: velvetleaf (Abutilon theophrasti); assay: as above
From the text: as §1, §2

[12] = test system: waterhemp (common waterhemp, Amaranthus rudis); assay: as above
From the text: as §1, §2

kochia (Kochia scoparia) = assay: Test C greenhouse herbicide test, postemergence
Summary of the method: (§3)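 Greenhouse postemergence spray on plants 2–18 cm tall; response judged visually after 13–15 d relative to untreated controls using a 0 (none) to 100 (full control) scale.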

[13] = test system: oat, wild (wild oat, Avena fatua); assay: Test C greenhouse herbicide test, postemergence
Summary of the method: as §3

[14] = Postemergence, 31 g ai/ha, 0 to 100 scale (0 no effect, 100 complete control)
[15] = Postemergence, 125 g ai/ha, scale 0 to 100, 0 is no effect, 100 is complete control
[16] = Postemergence, 250 g ai/ha, scale 0 to 100, 0 no effect, 100 complete control, 13 to 15 d
[17] = Preemergence, 31 g ai/ha, scale 0 to 100, 0 is no effect, 100 is complete control
[18] = Preemergence, 62 g ai/ha, scale 0 to 100, 0 is no effect, 100 is complete control
[19] = Preemergence, 125 g ai/ha, scale 0 to 100, 0 is no effect, 100 is complete control
[20] = Preemergence, 250 g ai/ha, scale 0 to 100 (0 no effect, 100 complete control)
[21] = postemergence, 62 g ai/ha, scale 0 to 100, 0 no effect, 100 complete control
[22] = Postemergence, 16 g ai/ha, scale 0 to 100 (0 no effect, 100 complete control)

CCOC(=O)Oc1c(C)nn(C)c(=O)c1-c1c(CC)ccc2ccccc12 [Compound 37]
100: Plant response rating, Lambsquarters [5, 16] | Plant response rating, Pigweed [8, 19] | Pigweed plant response rating [8, 20] | Pigweed plant response rating [8, 21] | Waterhemp plant response rating [12, 20]
95: Plant response rating, Lambsquarters [5, 15] | Morningglory plant response rating [6, 21] | Plant response rating, Pigweed [8, 15] | Plant response rating, Pigweed [8, 16] | Plant response rating, Ragweed [9, 19] | Ragweed plant response rating [9, 21] | Ryegrass, Italian plant response rating [10, 20] | Plant response rating, Waterhemp [12, 18] | Plant response rating, Waterhemp [12, 19]
40: Blackgrass plant response rating [1, 21] | Oilseed Rape plant response rating [7, 14] | Plant response rating, Oilseed Rape [7, 15] | Plant response rating, Oilseed Rape [7, 18]
50: Plant response rating, Oilseed Rape [7, 16] | Plant response rating, Ryegrass, Italian [10, 17]
20: Plant response rating, Corn (corn (Zea mays); [15]) | Corn plant response rating (corn (Zea mays); [20]) | Plant response rating, Crabgrass, Large [2, 19] | Crabgrass, Large plant response rating [2, 21] | Oilseed Rape plant response rating [7, 21] | Plant response rating, Soybean (soybean (Glycine max); [19]) | Velvetleaf plant response rating [11, 14]
65: Plant response rating, Foxtail, Giant [3, 17] | Soybean plant response rating (soybean (Glycine max); [20])
80: Plant response rating, Blackgrass [1, 15] | Plant response rating, Morningglory [6, 18] | Ryegrass, Italian plant response rating [10, 14] | Plant response rating, Velvetleaf [11, 18] | Plant response rating, Waterhemp [12, 15] | Waterhemp plant response rating [12, 21] | Plant response rating, Kochia (kochia (Kochia scoparia); [16]) | Oat, Wild plant response rating [13, 21]
0: Corn plant response rating (corn (Zea mays); [14]) | Plant response rating, Corn (corn (Zea mays); [17]) | Plant response rating, Corn (corn (Zea mays); [18]) | Plant response rating, Corn (corn (Zea mays); [19]) | Johnsongrass plant response rating [4, 14] | Plant response rating, Johnsongrass [4, 17] | Plant response rating, Johnsongrass [4, 18] | Johnsongrass plant response rating [4, 20] | Plant response rating, Oilseed Rape [7, 17] | Plant response rating, Soybean (soybean (Glycine max); [17]) | Kochia plant response rating (kochia (Kochia scoparia); [14]) | Kochia plant response rating (kochia (Kochia scoparia); [21])
75: Plant response rating, Foxtail, Giant [3, 18]
70: Plant response rating, Morningglory [6, 17] | Velvetleaf plant response rating [11, 21]
25: Plant response rating, Crabgrass, Large [2, 15] | Crabgrass, Large plant response rating [2, 20] | Foxtail, Giant plant response rating [3, 14] | Plant response rating, Soybean (soybean (Glycine max); [16]) | Plant response rating, Velvetleaf [11, 17]
35: Blackgrass plant response rating [1, 14] | Plant response rating, Crabgrass, Large [2, 16] | Foxtail, Giant plant response rating [3, 21] | Plant response rating, Johnsongrass [4, 16]
60: Plant response rating, Foxtail, Giant [3, 15] | Plant response rating, Lambsquarters [5, 18] | Plant response rating, Oilseed Rape [7, 19] | Oat, Wild plant response rating [13, 14]
98: Plant response rating, Morningglory [6, 15] | Plant response rating, Morningglory [6, 16] | Morningglory plant response rating [6, 20] | Plant response rating, Pigweed [8, 17] | Plant response rating, Pigweed [8, 18] | Plant response rating, Ragweed [9, 15] | Plant response rating, Ragweed [9, 16] | Ragweed plant response rating [9, 20] | Plant response rating, Waterhemp [12, 16]
15: Plant response rating, Soybean (soybean (Glycine max); [15])
30: Plant response rating, Blackgrass [1, 18] | Plant response rating, Corn (corn (Zea mays); [16]) | Plant response rating, Soybean (soybean (Glycine max); [18])
5: Plant response rating, Crabgrass, Large [2, 17] | Plant response rating, Crabgrass, Large [2, 18] | Plant response rating, Johnsongrass [4, 15] | Plant response rating, Johnsongrass [4, 19] | Johnsongrass plant response rating [4, 21] | Soybean plant response rating (soybean (Glycine max); [21]) | Plant response rating, Kochia (kochia (Kochia scoparia); [15])
85: Plant response rating, Blackgrass [1, 16] | Plant response rating, Foxtail, Giant [3, 16] | Plant response rating, Foxtail, Giant [3, 19] | Foxtail, Giant plant response rating [3, 20] | Plant response rating, Lambsquarters [5, 17] | Plant response rating, Lambsquarters [5, 19] | Pigweed plant response rating [8, 14] | Plant response rating, Ragweed [9, 17] | Plant response rating, Ryegrass, Italian [10, 18] | Ryegrass, Italian plant response rating [10, 21] | Plant response rating, Velvetleaf [11, 15] | Plant response rating, Velvetleaf [11, 19] | Waterhemp plant response rating [12, 14]
90: Plant response rating, Blackgrass [1, 19] | Blackgrass plant response rating [1, 20] | Lambsquarters plant response rating [5, 14] | Lambsquarters plant response rating [5, 20] | Lambsquarters plant response rating [5, 21] | Morningglory plant response rating [6, 14] | Plant response rating, Morningglory [6, 19] | Oilseed Rape plant response rating [7, 20] | Ragweed plant response rating [9, 14] | Plant response rating, Ragweed [9, 18] | Plant response rating, Ryegrass, Italian [10, 15] | Plant response rating, Ryegrass, Italian [10, 16] | Plant response rating, Ryegrass, Italian [10, 19] | Plant response rating, Velvetleaf [11, 16] | Velvetleaf plant response rating [11, 20] | Plant response rating, Waterhemp [12, 17] | Plant response rating, Oat, Wild [13, 15] | Plant response rating, Oat, Wild [13, 16]
10: Plant response rating, Blackgrass [1, 17] | Corn plant response rating (corn (Zea mays); [21]) | Crabgrass, Large plant response rating [2, 14] | Soybean plant response rating (soybean (Glycine max); [14])

COc1ccc2ccccc2c1-c1c(O)c(C)nn(C)c1=O [Compound 40]
65: Morningglory plant response rating [6, 21] | Pigweed plant response rating [8, 21] | Ryegrass, Italian plant response rating [10, 21] | Waterhemp plant response rating [12, 14] | Waterhemp plant response rating [12, 21]
0: Plant response rating, Corn (corn (Zea mays); [22]) | Corn plant response rating (corn (Zea mays); [14]) | Corn plant response rating (corn (Zea mays); [21]) | Plant response rating, Johnsongrass [4, 22] | Johnsongrass plant response rating [4, 14] | Plant response rating, Oilseed Rape [7, 22] | Plant response rating, Kochia (kochia (Kochia scoparia); [15])
80: Plant response rating, Lambsquarters [5, 15] | Plant response rating, Morningglory [6, 15] | Plant response rating, Ryegrass, Italian [10, 15] | Plant response rating, Waterhemp [12, 15] | Kochia plant response rating (kochia (Kochia scoparia); [21])
20: Plant response rating, Corn (corn (Zea mays); [15]) | Plant response rating, Foxtail, Giant [3, 15] | Plant response rating, Velvetleaf [11, 15] | Plant response rating, Waterhemp [12, 22] | Plant response rating, Kochia (kochia (Kochia scoparia); [22])
15: Blackgrass plant response rating [1, 21] | Foxtail, Giant plant response rating [3, 21] | Plant response rating, Pigweed [8, 22]
60: Soybean plant response rating (soybean (Glycine max); [21]) | Plant response rating, Oat, Wild [13, 15]
10: Plant response rating, Crabgrass, Large [2, 15] | Plant response rating, Ryegrass, Italian [10, 22] | Velvetleaf plant response rating [11, 21]
35: Pigweed plant response rating [8, 14] | Plant response rating, Soybean (soybean (Glycine max); [22]) | Oat, Wild plant response rating [13, 14]
50: Plant response rating, Lambsquarters [5, 22] | Ryegrass, Italian plant response rating [10, 14] | Oat, Wild plant response rating [13, 21]
85: Plant response rating, Pigweed [8, 15] | Plant response rating, Ragweed [9, 15]
25: Plant response rating, Ragweed [9, 22]
70: Lambsquarters plant response rating [5, 14] | Lambsquarters plant response rating [5, 21] | Kochia plant response rating (kochia (Kochia scoparia); [14])
45: Plant response rating, Blackgrass [1, 15] | Ragweed plant response rating [9, 14]
30: Oilseed Rape plant response rating [7, 21] | Plant response rating, Soybean (soybean (Glycine max); [15])
5: Plant response rating, Blackgrass [1, 22] | Blackgrass plant response rating [1, 14] | Plant response rating, Crabgrass, Large [2, 22] | Crabgrass, Large plant response rating [2, 14] | Crabgrass, Large plant response rating [2, 21] | Plant response rating, Foxtail, Giant [3, 22] | Foxtail, Giant plant response rating [3, 14] | Plant response rating, Johnsongrass [4, 15] | Johnsongrass plant response rating [4, 21] | Plant response rating, Morningglory [6, 22] | Oilseed Rape plant response rating [7, 14] | Plant response rating, Oilseed Rape [7, 15] | Soybean plant response rating (soybean (Glycine max); [14]) | Plant response rating, Velvetleaf [11, 22] | Velvetleaf plant response rating [11, 14] | Plant response rating, Oat, Wild [13, 22]
75: Ragweed plant response rating [9, 21]
55: Morningglory plant response rating [6, 14]
